How the values were obtained:
MM96L melanoma cell line = test: MM96L assay of chromatographic fractions (cell inhibition, reversion to dendritic appearance); type: cell-based, human; conditions: at 1 in 5×10^6 dilution
Method: Fractions were dried by vacuum centrifugation, reconstituted in 500 μl PBS, and assayed against MM96L cells and in the metallothionein reporter assay as described above. Fractions 13 to 28 all induced complete reversion of MM96L cells to a dendritic appearance, but cell death was not observed. The effect was much more striking in the reporter assay, in which activity was still observed at a dilution of 1/10,000 (i.e. at a final concentration in the culture of 1/100,000).
Fractions 14 and 15 from the HPLC subfractionation described in Example 7 and FIG. 3 were further purified by repeated chromatography, selecting the dominant symmetrical peak with constant diode array spectra (e.g. fractions 14 and 15; results for fraction 14 are shown in FIGS. 4 and 5). Activity of the purified fractions in causing reversion of MM96L to the dendritic appearance was confirmed by cell assay.
(a) The ether-soluble fraction, prepared as in Example 7, was reconstituted in ethylene glycol dimethyl ether (DME) and chromatographed on 20×20 cm silica gel plates, using chloroform:ethyl acetate (82:18) as the developing solvent (FIG. 7). The plate was viewed on a UV light box and the UV positive bands were identified, excised from the gel, eluted with DME, and tested for inhibitory activity and morphology reversal against MM96L melanoma cell line. […]

MM96L cells = test: Effect of betaines on MM96L cell numbers; type: cell-based, human; parameters: key to cell numbers rating and morphology: +++ = no effect; − = complete cell death; *d = indicates change to dendritic morphology of the cells; conditions: 4 days
Method: Betaines of different types were solubilised in sterile MilliQ™ water to a final concentration of 1 mg/ml, and diluted into 0.1 ml tissue culture medium containing 5000 MM96L cells as described previously. Cells were scored after 4 days incubation.

**Q.** Which “final concentration active in reversion to complete dendritic morphology” value (MM96L melanoma cell line) does the source give for 20-acetyl-ingenol-3-angelate here?
**A.** 1 ng/ml

**Q.** What does the source list for CN1CCC[C@H]1C(=O)O [N-methyl proline, free base, N-methyl proline]?
**A.** cell numbers rating and morphology (MM96L cells; dilution 1/50 of 1 mg/ml): +++; cell numbers rating and morphology (MM96L cells; dilution 1/500 of 1 mg/ml): +++; cell numbers rating and morphology (MM96L cells; dilution 1/5,000 of 1 mg/ml): +++

**Q.** Which “cell numbers rating and morphology” value (MM96L cells; dilution 1/50 of 1 mg/ml) does the source give for C[N+](C)(C)CC(=O)[O-] [glycine betaine] here?
**A.** +++

**Q.** What about the “cell numbers rating and morphology” value (MM96L cells; dilution 1/500 of 1 mg/ml) of the same molecule?
**A.** +++

**Q.** And the “cell numbers rating and morphology” value (MM96L cells; dilution 1/5,000 of 1 mg/ml)?
**A.** +++

**Q.** What does the source list for C[N+]1(C)CCC[C@H]1C(=O)[O-] [stachydrine (proline betaine), free base, stachydrine (proline betaine)]?
**A.** cell numbers rating and morphology (MM96L cells; dilution 1/50 of 1 mg/ml): +++; cell numbers rating and morphology (MM96L cells; dilution 1/500 of 1 mg/ml): +++; cell numbers rating and morphology (MM96L cells; dilution 1/5,000 of 1 mg/ml): +++

**Q.** Which results are given for CN1CC[C@@H](O)[C@@H]1C(=O)O [t-3-hydroxy N-methyl proline, free base, t-3-hydroxy N-methyl proline]?
**A.** cell numbers rating and morphology (MM96L cells; dilution 1/50 of 1 mg/ml): +++; cell numbers rating and morphology (MM96L cells; dilution 1/500 of 1 mg/ml): +++; cell numbers rating and morphology (MM96L cells; dilution 1/5,000 of 1 mg/ml): +++

**Q.** How did the “final concentration at which cell numbers were depressed or inhibited” value (MM96L cells) turn out when C[N+]1(C)C[C@H](O)C[C@H]1C(=O)[O-] [t-4 hydroxy N,N-dimethyl proline] was run?
**A.** 20 µg/mL

**Q.** What about the “cell numbers rating and morphology” value (MM96L cells; dilution 1/50 of 1 mg/ml) of the same molecule?
**A.** +pd

**Q.** What about the “cell numbers rating and morphology” value (MM96L cells; dilution 1/500 of 1 mg/ml) of the same molecule?
**A.** +++

**Q.** What about the “cell numbers rating and morphology” value (MM96L cells; dilution 1/5,000 of 1 mg/ml) of the same molecule?
**A.** +++

**Q.** Which “cell numbers rating and morphology” value (MM96L cells; dilution 1/50 of 1 mg/ml) does the source give for CN1C[C@@H](O)C[C@@H]1C(=O)O [t-4-hydroxy N-methyl proline, free base, t-4-hydroxy N-methyl proline] here?
**A.** +++

**Q.** And the “cell numbers rating and morphology” value (MM96L cells; dilution 1/500 of 1 mg/ml)?
**A.** +++

**Q.** And the “cell numbers rating and morphology” value (MM96L cells; dilution 1/5,000 of 1 mg/ml)?
**A.** +++

**Q.** For C[N+](C)(C)CCC(=O)O.[Cl-] [β-alanine betaine hydrochloride], which “final concentration at which cell numbers were depressed or inhibited” value (MM96L cells) is on record?
**A.** 20 µg/mL

**Q.** What about the “cell numbers rating and morphology” value (MM96L cells; dilution 1/50 of 1 mg/ml) of the same molecule?
**A.** ++d

**Q.** And the “cell numbers rating and morphology” value (MM96L cells; dilution 1/500 of 1 mg/ml)?
**A.** +++

**Q.** And the “cell numbers rating and morphology” value (MM96L cells; dilution 1/5,000 of 1 mg/ml)?
**A.** +++

From patent US6787161B2, “Anti-cancer compounds” (Peplin Biotech Pty. Ltd., priority 1997, dated 2004)
